± gives the uncertainty stated by the source.
Test: xn = mol fraction of the nth substance listed

CCCC(=O)OC + CCCCCCC
Conditions | viscosity [mPa·s]
293.15 K, 101.33 kPa, x1 = 0.08428 | 0.408 ± 0.003
293.15 K, 101.33 kPa, x1 = 0.1292 | 0.409 ± 0.003
293.15 K, 101.33 kPa, x1 = 0.1965 | 0.413 ± 0.003
293.15 K, 101.33 kPa, x1 = 0.2883 | 0.419 ± 0.003
293.15 K, 101.33 kPa, x1 = 0.3831 | 0.429 ± 0.003
293.15 K, 101.33 kPa, x1 = 0.4997 | 0.445 ± 0.003
293.15 K, 101.33 kPa, x1 = 0.5976 | 0.462 ± 0.004
293.15 K, 101.33 kPa, x1 = 0.6939 | 0.483 ± 0.004
293.15 K, 101.33 kPa, x1 = 0.7977 | 0.51 ± 0.004
293.15 K, 101.33 kPa, x1 = 0.905 | 0.542 ± 0.004
293.15 K, 101.33 kPa, x1 = 0.9304 | 0.552 ± 0.004
303.15 K, 101.33 kPa, x1 = 0.05501 | 0.368 ± 0.003
303.15 K, 101.33 kPa, x1 = 0.1135 | 0.369 ± 0.003
303.15 K, 101.33 kPa, x1 = 0.1897 | 0.372 ± 0.003
303.15 K, 101.33 kPa, x1 = 0.2828 | 0.377 ± 0.003
303.15 K, 101.33 kPa, x1 = 0.4056 | 0.388 ± 0.003
303.15 K, 101.33 kPa, x1 = 0.5087 | 0.4 ± 0.003
303.15 K, 101.33 kPa, x1 = 0.5969 | 0.413 ± 0.003
303.15 K, 101.33 kPa, x1 = 0.6951 | 0.431 ± 0.003
303.15 K, 101.33 kPa, x1 = 0.803 | 0.454 ± 0.004
303.15 K, 101.33 kPa, x1 = 0.9043 | 0.481 ± 0.004
303.15 K, 101.33 kPa, x1 = 0.9349 | 0.49 ± 0.004
308.15 K, 101.3 kPa, x1 = 0.0525 | 0.357 ± 0.004
308.15 K, 101.3 kPa, x1 = 0.156 | 0.366 ± 0.004
308.15 K, 101.3 kPa, x1 = 0.1959 | 0.369 ± 0.004
308.15 K, 101.3 kPa, x1 = 0.2969 | 0.379 ± 0.004
308.15 K, 101.3 kPa, x1 = 0.4989 | 0.406 ± 0.004
308.15 K, 101.3 kPa, x1 = 0.5971 | 0.421 ± 0.004
308.15 K, 101.3 kPa, x1 = 0.7995 | 0.459 ± 0.004
308.15 K, 101.3 kPa, x1 = 0.8524 | 0.47 ± 0.004
308.15 K, 101.3 kPa, x1 = 0.9236 | 0.487 ± 0.004
308.15 K, 101.3 kPa, x1 = 0.9531 | 0.494 ± 0.005
308.15 K, 101.3 kPa, x2 = 0.0175 | 0.501 ± 0.005
313.15 K, 101.33 kPa, x1 = 0.06751 | 0.334 ± 0.003
313.15 K, 101.33 kPa, x1 = 0.1218 | 0.335 ± 0.003
313.15 K, 101.33 kPa, x1 = 0.1984 | 0.338 ± 0.003
313.15 K, 101.33 kPa, x1 = 0.2903 | 0.342 ± 0.003
313.15 K, 101.33 kPa, x1 = 0.4044 | 0.351 ± 0.003
313.15 K, 101.33 kPa, x1 = 0.5173 | 0.363 ± 0.003
313.15 K, 101.33 kPa, x1 = 0.5954 | 0.373 ± 0.003
313.15 K, 101.33 kPa, x1 = 0.6931 | 0.388 ± 0.003
313.15 K, 101.33 kPa, x1 = 0.8053 | 0.409 ± 0.003
313.15 K, 101.33 kPa, x1 = 0.9053 | 0.432 ± 0.003
313.15 K, 101.33 kPa, x1 = 0.9355 | 0.44 ± 0.003
318.15 K, 101.3 kPa, x1 = 0.0525 | 0.326 ± 0.003
318.15 K, 101.3 kPa, x1 = 0.156 | 0.337 ± 0.003
318.15 K, 101.3 kPa, x1 = 0.1959 | 0.341 ± 0.003
318.15 K, 101.3 kPa, x1 = 0.2969 | 0.352 ± 0.004
318.15 K, 101.3 kPa, x1 = 0.4989 | 0.379 ± 0.004
318.15 K, 101.3 kPa, x1 = 0.5971 | 0.397 ± 0.004
318.15 K, 101.3 kPa, x1 = 0.7995 | 0.427 ± 0.004
318.15 K, 101.3 kPa, x1 = 0.8524 | 0.437 ± 0.004
318.15 K, 101.3 kPa, x1 = 0.9236 | 0.451 ± 0.004
318.15 K, 101.3 kPa, x1 = 0.9531 | 0.458 ± 0.004
318.15 K, 101.3 kPa, x2 = 0.0175 | 0.465 ± 0.004

CCCCOC(=O)c1ccccc1 + CCCCCCC
viscosity [mPa·s], 101 kPa
Conditions | x1 = 0.0994 | x1 = 0.1959 | x1 = 0.2964 | x1 = 0.3986 | x1 = 0.4963 | x1 = 0.5965 | x1 = 0.6954 | x1 = 0.7986 | x1 = 0.8973
298.15 K | 0.457 ± 0.007 | 0.536 ± 0.007 | 0.645 ± 0.008 | 0.777 ± 0.008 | 0.95 ± 0.009 | 1.162 ± 0.011 | 1.411 ± 0.013 | 1.731 ± 0.015 | 2.122 ± 0.019
308.15 K | 0.41 ± 0.007 | 0.476 ± 0.007 | 0.571 ± 0.007 | 0.686 ± 0.008 | 0.811 ± 0.009 | 0.978 ± 0.01 | 1.176 ± 0.011 | 1.413 ± 0.013 | 1.727 ± 0.015
318.15 K | 0.368 ± 0.007 | 0.426 ± 0.007 | 0.501 ± 0.007 | 0.598 ± 0.008 | 0.697 ± 0.008 | 0.835 ± 0.009 | 0.991 ± 0.01 | 1.192 ± 0.011 | 1.426 ± 0.013

CC(C)(C)O + CCCCCCCC
viscosity [mPa·s], 101 kPa
Conditions | x1 = 0.8499 | x1 = 0.9 | x1 = 0.9235
303.15 K | – | – | 2.015 ± 0.012
313.15 K | 1.075 ± 0.0093 | 1.275 ± 0.0098 | –

CCCC(=O)OC + CCCCCCCC
101.33 kPa
Conditions | viscosity [mPa·s]
293.15 K, x1 = 0.0893 | 0.53 ± 0.004
293.15 K, x1 = 0.137 | 0.525 ± 0.004
293.15 K, x1 = 0.2169 | 0.519 ± 0.004
293.15 K, x1 = 0.3101 | 0.514 ± 0.004
293.15 K, x1 = 0.3906 | 0.514 ± 0.004
293.15 K, x1 = 0.5062 | 0.516 ± 0.004
293.15 K, x1 = 0.6094 | 0.522 ± 0.004
293.15 K, x1 = 0.6977 | 0.529 ± 0.004
293.15 K, x1 = 0.795 | 0.54 ± 0.004
293.15 K, x1 = 0.8572 | 0.55 ± 0.004
293.15 K, x1 = 0.9222 | 0.562 ± 0.004
303.15 K, x1 = 0.1392 | 0.468 ± 0.004
303.15 K, x1 = 0.2271 | 0.462 ± 0.004
303.15 K, x1 = 0.315 | 0.459 ± 0.004
303.15 K, x1 = 0.4073 | 0.458 ± 0.004
303.15 K, x1 = 0.5146 | 0.459 ± 0.004
303.15 K, x1 = 0.607 | 0.464 ± 0.004
303.15 K, x1 = 0.6957 | 0.47 ± 0.004
303.15 K, x1 = 0.7994 | 0.48 ± 0.004
303.15 K, x1 = 0.8631 | 0.488 ± 0.004
303.15 K, x1 = 0.9198 | 0.497 ± 0.004
313.15 K, x1 = 0.07444 | 0.425 ± 0.003
313.15 K, x1 = 0.1338 | 0.42 ± 0.003
313.15 K, x1 = 0.2249 | 0.416 ± 0.003
313.15 K, x1 = 0.3123 | 0.413 ± 0.003
313.15 K, x1 = 0.3936 | 0.411 ± 0.003
313.15 K, x1 = 0.4968 | 0.413 ± 0.003
313.15 K, x1 = 0.6049 | 0.417 ± 0.003
313.15 K, x1 = 0.6981 | 0.423 ± 0.003
313.15 K, x1 = 0.8007 | 0.432 ± 0.003
313.15 K, x1 = 0.866 | 0.439 ± 0.003
313.15 K, x1 = 0.9319 | 0.448 ± 0.004

Reference: the CheMixHub viscosity set
